Biological target: T1, E3 ubiquitin-protein ligase Mdm2 [23-117] (Human, UniProt Q00987)
T1 construct: 23-117
Test: Inhibition AlphaScreen Assay
Protocol: A mix consisting of 20 nM GST-MDM2 protein (aa 23-117) and 20 nM biotinylated p53 wt peptide (encompassing aa 16-27 of wt human p53, amino acid sequence QETFSDLWKLLP-Ttds-Lys-Biotin, molecular weight 2132.56 g/mol) is prepared in assay buffer (50 mM Tris/HCl pH 7.2; 120 mM NaCl; 0.1% bovine serum albumin (BSA); 5 mM dithiothreitol (DTT); 1 mM ethylenediaminetetraacetic acid (EDTA); 0.01% Tween 20). 30 μL of the mix is added to the compound dilutions and incubated for 15 min at rt while gently shaking the plate at 300 rounds per minute (rpm). Subsequently, 15 μL of premixed AlphaLISA Glutathione Acceptor Beads and AlphaScreen Streptavidin Donor Beads from PerkinElmer (in assay buffer at a concentration of 10 μg/mL each) are added and the samples are incubated for 30 min at rt in the dark (shaking 300 rpm). Afterwards, the signal is measured in a PerkinElmer Envision HTS Multilabel Reader using the AlphaScreen protocol from PerkinElmer.Each plate contains negative controls where biotinylated p53-peptide and GST-MDM2 are left out and replaced by assay buffer. Negative control values are entered as low basis value when using the software GraphPad Prism for calculations.

T1 sequence (Q00987 23-117): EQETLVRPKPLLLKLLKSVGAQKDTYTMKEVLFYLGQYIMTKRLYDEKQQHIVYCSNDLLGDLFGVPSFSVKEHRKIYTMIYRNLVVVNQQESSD

O=C(O)c1ccc2c(c1)nc1n2CC[C@H]2[C@@H]1[C@H](c1cccc(Cl)c1F)[C@]1(C(=O)Nc3cc(Cl)ccc31)N2CC1CC1 [US10882866, Example Ib-171]
IC50: 10 nM

— BindingDB's records for patent US10882866 (Boehringer Ingelheim International GmbH, 2021)
